This note sets out measurements from patent US9309242B2, “Substituted pyrido[2,3-b]pyrazines as FGFR kinase inhibitors” (priority 2011, dated 2016).

For one assay, the target named is KDR (h) (Homo sapiens, UniProt P35968). Description: KDR (VEGFR2) (enzymatic assay), TR-FRET. The format is biochemical. The settings on record: read-out: VEGFR 2 (KDR) pIC50 (converted). In a few lines:
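TR-FRET readout (ex 340, em 620/655 nm) in RFU after EDTA stop with Eu-anti-phosphotyrosine and SA-XL665 for 60 min. The preceding 120-min room-temperature kinase step used 150 ng/ml KDR (h), 3 μM ATP, 500 nM biotinylated Flt3 peptide, MnCl2-containing HEPES buffer pH 7.5, 1% DMSO.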
In general terms: TR-FRET usually uses a lanthanide donor and a delayed reading to cut background.

The target in another assay is FGFR1 (h) (Homo sapiens, UniProt P11362). Briefly: FGFR1 (enzymatic assay), TR-FRET. The format is biochemical. The settings on record: read-out: FGFR 1 pIC50 (converted).
Sequence of FGFR1 (h) (P11362 22-822): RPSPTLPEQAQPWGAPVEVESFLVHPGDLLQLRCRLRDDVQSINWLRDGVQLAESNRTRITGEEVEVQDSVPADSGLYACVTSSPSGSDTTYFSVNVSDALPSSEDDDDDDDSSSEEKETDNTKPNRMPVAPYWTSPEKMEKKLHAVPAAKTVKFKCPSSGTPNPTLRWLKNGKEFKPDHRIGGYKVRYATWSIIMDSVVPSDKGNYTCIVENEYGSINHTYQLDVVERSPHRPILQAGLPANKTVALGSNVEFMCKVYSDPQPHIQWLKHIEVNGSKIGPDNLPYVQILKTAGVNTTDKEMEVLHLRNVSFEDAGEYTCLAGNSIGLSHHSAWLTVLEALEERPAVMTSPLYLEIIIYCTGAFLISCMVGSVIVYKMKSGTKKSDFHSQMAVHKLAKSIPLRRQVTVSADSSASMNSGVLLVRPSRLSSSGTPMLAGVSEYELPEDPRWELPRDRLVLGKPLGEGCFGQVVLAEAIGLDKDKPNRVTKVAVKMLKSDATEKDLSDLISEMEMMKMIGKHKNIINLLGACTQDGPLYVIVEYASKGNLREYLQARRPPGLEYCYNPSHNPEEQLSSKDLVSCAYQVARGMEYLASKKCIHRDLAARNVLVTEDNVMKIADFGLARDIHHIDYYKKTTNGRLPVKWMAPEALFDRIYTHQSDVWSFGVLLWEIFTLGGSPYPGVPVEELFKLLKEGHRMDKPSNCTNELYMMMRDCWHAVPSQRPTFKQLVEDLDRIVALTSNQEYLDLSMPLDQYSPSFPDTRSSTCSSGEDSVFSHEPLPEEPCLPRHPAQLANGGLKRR
The subject of assay [1] is Ba/F3-FGFR1-transfected cells. Description: Ba/F3-FGFR1 (plus IL3) cellular proliferation assay, counterscreen with 10 ng/ml murine IL3. The settings on record: plus IL3 (10 ng/ml murine IL3, counterscreen); read-out: BAF3-FGFR1 (PLUS IL3) pIC50 (converted). The format is cell-based. In a few lines: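 Proliferation read-out: resazurin-based Alamar Blue fluorescence (540/590 nm) after 4 h, following 24 h compound treatment of 20000 Ba/F3-FGFR1 cells per well in 10% FBS RPMI at 37° C. IL3 counterscreen used the same protocol plus 10 ng/ml murine IL3.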
In general terms: Counterscreens check selectivity or assay interference.

The test system of assay [2] is Ba/F3-KDR-transfected cells. Briefly: Ba/F3-KDR (plus IL3) cellular proliferation assay, counterscreen with 10 ng/ml murine IL3. The note with it: plus IL3 (10 ng/ml murine IL3, counterscreen); read-out: BAF3-KDR (PLUS IL3) pIC50 (converted). The format is cell-based. In a few lines: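 Proliferation read-out by Alamar Blue fluorescence (ex. 540 nm, em. 590 nm) after 4 hours, following 24 hours of compound treatment at 37° C of 20000 Ba/F3-KDR cells per well in RPMI-1640/10% FBS. Same protocol with 10 ng/ml murine IL3 serves as counterscreen.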

Assay [3] has as its target T1, Ba/F3-FGFR1-transfected cells (Homo sapiens, UniProt P11362).
T1 construct: BAF3-FGFR1 (MIN IL3) pIC50; other: minus IL3
Description: Ba/F3-FGFR1 (minus IL3) cellular proliferation assay, Alamar Blue. The format is cell-based. The essentials: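 Ba/F3-FGFR1 cells (20000 per well) were exposed to compound for 24 h at 37 °C in RPMI-1640 with 10% FBS. Alamar Blue (resazurin) was then added for 4 h, and fluorescence was read at ex 540/em 590 nm.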
(In general: Alamar Blue is a resazurin reagent that responds to reducing activity.)

Another assay addresses FGFR4 (h) (Homo sapiens, UniProt P22455). Briefly: FGFR4 (enzymatic assay), TR-FRET. The format is biochemical. The settings on record: FGFR 4 pIC50, enzymatic assay.
Assay [4] addresses Ba/F3-FGFR4-transfected cells (Homo sapiens, UniProt P22455). Briefly: Ba/F3-FGFR4 cellular proliferation assay, Alamar Blue. The format is cell-based. In a few lines: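 Proliferation is measured by resazurin reduction: after 24 h compound treatment at 37 °C in RPMI-1640/10% FBS, cells get Alamar Blue for 4 h before RFU read (540/590 nm). Each well holds 20000 Ba/F3-FGFR4-transfected cells.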

The target of assay [5] is T2, Ba/F3-FGFR3-transfected cells (Homo sapiens, UniProt P22607).
T2 construct: BAF3-FGFR3 (MIN IL3) pIC50; other: minus IL3
Description: Ba/F3-FGFR3 (minus IL3) cellular proliferation assay, Alamar Blue. The format is cell-based. The essentials:
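Ba/F3 cells transfected with FGFR3, 20000/well in phenol red-free RPMI-1640 with 10% FBS, exposed to compound for 24 h at 37 °C, 5% CO2. Alamar Blue (resazurin) added for 4 h more; fluorescence read at ex 540/em 590 nm. Counterscreen run the same way with 10 ng/ml murine IL3.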

The target of the next assay is FGFR3 (h) (Homo sapiens, UniProt P22607). Briefly: FGFR3 (enzymatic assay), TR-FRET. The format is biochemical. The note with it: read-out: FGFR 3 pIC50 (converted). The text has this:
Time-Resolved Fluorescence Resonance Energy Transfer (TR-FRET) signal (ex340 nm.

Setting [6] is: average values if tested multiple times.

Where two headings read alike, the source gives them in different places. Bounds are passed on as bounds.

Sequence of Ba/F3-FGFR4-transfected cells (P22455 whole entry, change not shown): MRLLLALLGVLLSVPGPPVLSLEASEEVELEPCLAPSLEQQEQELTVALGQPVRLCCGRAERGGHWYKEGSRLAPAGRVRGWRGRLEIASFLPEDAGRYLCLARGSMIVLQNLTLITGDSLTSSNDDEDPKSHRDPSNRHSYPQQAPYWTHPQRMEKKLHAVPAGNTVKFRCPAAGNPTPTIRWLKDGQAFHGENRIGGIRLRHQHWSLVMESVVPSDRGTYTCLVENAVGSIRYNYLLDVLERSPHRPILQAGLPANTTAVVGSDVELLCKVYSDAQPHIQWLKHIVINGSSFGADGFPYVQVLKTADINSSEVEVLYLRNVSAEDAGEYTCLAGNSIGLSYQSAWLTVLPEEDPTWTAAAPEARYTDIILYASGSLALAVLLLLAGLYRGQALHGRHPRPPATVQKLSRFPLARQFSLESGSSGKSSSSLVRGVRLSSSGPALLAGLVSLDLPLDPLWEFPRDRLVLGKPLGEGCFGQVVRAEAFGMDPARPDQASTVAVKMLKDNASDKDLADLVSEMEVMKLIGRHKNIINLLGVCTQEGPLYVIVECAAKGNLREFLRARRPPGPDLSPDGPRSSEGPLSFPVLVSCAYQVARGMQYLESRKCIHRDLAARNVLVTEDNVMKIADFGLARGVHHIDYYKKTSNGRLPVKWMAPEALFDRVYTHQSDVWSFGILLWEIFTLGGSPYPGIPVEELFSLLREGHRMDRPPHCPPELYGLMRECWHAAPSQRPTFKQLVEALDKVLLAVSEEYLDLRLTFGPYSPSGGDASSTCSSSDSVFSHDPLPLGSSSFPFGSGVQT
Sequence of FGFR3 (h) (P22607 23-806): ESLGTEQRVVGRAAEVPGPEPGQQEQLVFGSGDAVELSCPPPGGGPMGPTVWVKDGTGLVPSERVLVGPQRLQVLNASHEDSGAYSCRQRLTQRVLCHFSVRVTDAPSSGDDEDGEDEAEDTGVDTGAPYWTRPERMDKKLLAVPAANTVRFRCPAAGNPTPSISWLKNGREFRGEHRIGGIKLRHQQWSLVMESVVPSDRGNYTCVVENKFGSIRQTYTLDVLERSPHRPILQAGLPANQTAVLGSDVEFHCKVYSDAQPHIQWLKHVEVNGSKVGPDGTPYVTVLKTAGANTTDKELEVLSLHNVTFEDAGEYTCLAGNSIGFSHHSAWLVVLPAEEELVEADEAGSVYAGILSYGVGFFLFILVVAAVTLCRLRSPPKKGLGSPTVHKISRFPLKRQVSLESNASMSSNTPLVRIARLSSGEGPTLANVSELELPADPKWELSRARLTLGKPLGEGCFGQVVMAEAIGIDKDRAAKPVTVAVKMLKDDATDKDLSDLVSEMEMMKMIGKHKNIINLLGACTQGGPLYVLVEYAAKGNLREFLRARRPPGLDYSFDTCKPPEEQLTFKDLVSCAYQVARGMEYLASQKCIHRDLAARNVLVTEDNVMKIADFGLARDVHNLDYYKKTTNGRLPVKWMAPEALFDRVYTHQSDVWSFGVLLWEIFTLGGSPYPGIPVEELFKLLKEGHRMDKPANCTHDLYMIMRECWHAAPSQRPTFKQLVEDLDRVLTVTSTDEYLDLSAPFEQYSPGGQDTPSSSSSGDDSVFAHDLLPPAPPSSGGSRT
Sequence of FGFR4 (h) (P22455 22-802): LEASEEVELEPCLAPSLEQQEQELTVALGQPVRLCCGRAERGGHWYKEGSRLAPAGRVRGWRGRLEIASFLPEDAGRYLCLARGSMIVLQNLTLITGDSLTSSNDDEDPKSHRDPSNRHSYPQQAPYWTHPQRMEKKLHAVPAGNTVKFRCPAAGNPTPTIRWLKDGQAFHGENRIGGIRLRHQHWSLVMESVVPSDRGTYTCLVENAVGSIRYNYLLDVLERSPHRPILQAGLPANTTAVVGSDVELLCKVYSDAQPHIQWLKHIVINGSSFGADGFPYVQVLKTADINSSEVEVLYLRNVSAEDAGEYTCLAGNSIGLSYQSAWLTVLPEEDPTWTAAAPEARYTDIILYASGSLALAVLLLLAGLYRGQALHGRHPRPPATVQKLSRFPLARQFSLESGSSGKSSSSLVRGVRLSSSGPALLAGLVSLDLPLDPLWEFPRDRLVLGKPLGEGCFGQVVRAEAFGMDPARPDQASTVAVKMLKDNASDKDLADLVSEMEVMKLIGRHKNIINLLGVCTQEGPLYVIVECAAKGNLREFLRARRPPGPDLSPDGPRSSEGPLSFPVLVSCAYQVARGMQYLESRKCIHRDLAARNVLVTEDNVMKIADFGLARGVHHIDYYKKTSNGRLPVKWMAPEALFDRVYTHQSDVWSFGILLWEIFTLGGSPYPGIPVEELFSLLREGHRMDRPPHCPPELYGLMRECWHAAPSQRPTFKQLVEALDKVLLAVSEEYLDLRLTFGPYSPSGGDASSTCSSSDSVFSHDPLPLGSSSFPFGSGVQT
Sequence of KDR (h) (P35968 20-1356): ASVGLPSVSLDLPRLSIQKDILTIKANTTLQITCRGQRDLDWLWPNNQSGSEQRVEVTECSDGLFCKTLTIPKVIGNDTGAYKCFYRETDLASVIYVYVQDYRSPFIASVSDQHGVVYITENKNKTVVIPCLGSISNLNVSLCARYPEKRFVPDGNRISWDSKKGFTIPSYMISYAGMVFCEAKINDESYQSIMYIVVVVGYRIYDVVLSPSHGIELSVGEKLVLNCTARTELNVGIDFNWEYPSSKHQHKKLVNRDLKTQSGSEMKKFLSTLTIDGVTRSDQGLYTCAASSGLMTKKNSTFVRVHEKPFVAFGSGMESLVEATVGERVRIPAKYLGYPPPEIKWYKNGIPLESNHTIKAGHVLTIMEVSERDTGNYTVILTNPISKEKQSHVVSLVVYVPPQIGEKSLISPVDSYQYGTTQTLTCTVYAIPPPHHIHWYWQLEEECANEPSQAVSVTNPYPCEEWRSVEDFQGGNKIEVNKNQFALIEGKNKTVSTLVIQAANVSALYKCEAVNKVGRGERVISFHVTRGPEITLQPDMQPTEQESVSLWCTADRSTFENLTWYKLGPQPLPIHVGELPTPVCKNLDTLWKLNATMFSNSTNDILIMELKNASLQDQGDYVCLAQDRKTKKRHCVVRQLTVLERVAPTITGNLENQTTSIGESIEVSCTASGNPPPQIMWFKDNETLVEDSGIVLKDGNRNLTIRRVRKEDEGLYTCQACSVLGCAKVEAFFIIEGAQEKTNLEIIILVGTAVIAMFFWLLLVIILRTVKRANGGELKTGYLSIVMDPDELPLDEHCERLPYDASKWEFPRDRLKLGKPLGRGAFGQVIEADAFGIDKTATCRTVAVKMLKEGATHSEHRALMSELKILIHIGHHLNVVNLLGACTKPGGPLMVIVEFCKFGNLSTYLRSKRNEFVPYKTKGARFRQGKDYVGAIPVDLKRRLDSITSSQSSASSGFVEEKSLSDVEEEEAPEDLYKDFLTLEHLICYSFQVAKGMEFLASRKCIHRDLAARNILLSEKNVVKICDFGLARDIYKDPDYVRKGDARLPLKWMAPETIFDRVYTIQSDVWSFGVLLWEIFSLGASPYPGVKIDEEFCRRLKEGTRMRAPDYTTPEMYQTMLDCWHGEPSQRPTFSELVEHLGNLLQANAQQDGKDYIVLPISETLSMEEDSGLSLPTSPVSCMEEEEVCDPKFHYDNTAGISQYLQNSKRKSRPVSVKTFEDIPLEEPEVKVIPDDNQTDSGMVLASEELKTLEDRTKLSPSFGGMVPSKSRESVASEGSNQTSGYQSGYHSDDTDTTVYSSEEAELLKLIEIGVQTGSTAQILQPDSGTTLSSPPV

`COc1cc(OC)c(F)c(N(c2ccc3ncc(-c4cnn(C)c4)nc3n2)C(CO)COC(C)C)c1` (single isomer, unassigned) [Compound 76]: the IC50 was > 1000 nM at KDR (h) (setting [6]); 302 nM at FGFR1 (h) (setting [6]); > 10000 nM in assay [1]; > 10000 nM in assay [2]; 214 nM at FGFR4 (h) (setting [6]); 105 nM at FGFR3 (h) (setting [6]). The “BAF3-FGFR1 (MIN IL3) pIC50” value in assay [3] worked out at 5.55. Also, the “BAF3-FGFR4 pIC50” value in assay [4] worked out at 5.20. For the same molecule, in assay [5], the “BAF3-FGFR3 (MIN IL3) pIC50” value stood at 5.64.
On to `COc1cc(OC)c(F)c(N(Cc2cn[nH]c2)c2ccc3ncc(-c4cnn(C)c4)nc3n2)c1` [Compound 125], for which the IC50 was 8.71 nM on KDR (h); 0.851 nM at FGFR1 (h); > 10000 nM in assay [1]; > 10000 nM in assay [2]; 1.58 nM at FGFR4 (h); 0.724 nM at FGFR3 (h). The “BAF3-FGFR1 (MIN IL3) pIC50” value in assay [3] came to 7.61. The “BAF3-FGFR4 pIC50” value in assay [4] is reported as ~7.15. In assay [5], the “BAF3-FGFR3 (MIN IL3) pIC50” value was ~7.57.
For the molecule `COc1cc(OC)c(F)c(N(CCO)c2ccc3ncc(-c4cnn(C)c4)nc3n2)c1` [Compound 40], the IC50 on KDR (h) (setting [6]) is 17.4 nM; at FGFR1 (h) (setting [6]), 0.724 nM; in assay [1] it was > 10000 nM; in [2], > 10000 nM; against FGFR4 (h) (setting [6]) it was 1.82 nM; on FGFR3 (h) (setting [6]) it was 0.646 nM. In addition, the “BAF3-FGFR1 (MIN IL3) pIC50” value in [3] is listed as 7.80. Further, the “BAF3-FGFR4 pIC50” value in [4] worked out at 7.04. The “BAF3-FGFR3 (MIN IL3) pIC50” value in assay [5] amounted to 7.84.
Consider `COc1cc(OC)c(F)c(N(Cc2cc[nH]n2)c2ccc3ncc(-c4cnn(C)c4)nc3n2)c1` [Compound 118], for which the IC50 is 6.46 nM at KDR (h) (setting [6]); 0.759 nM on FGFR1 (h) (setting [6]); > 10000 nM in [1]; > 10000 nM in [2]; 0.776 nM on FGFR4 (h) (setting [6]); 0.589 nM on FGFR3 (h) (setting [6]). Further, in [3], the “BAF3-FGFR1 (MIN IL3) pIC50” value was 8.00. The “BAF3-FGFR4 pIC50” value in [4] is recorded as ~7.56. In addition, the “BAF3-FGFR3 (MIN IL3) pIC50” value in assay [5] is ~8.04.
Turning to `CNCCn1/c(=N/c2c(Cl)ccc(OC)c2Cl)ccc2ncc(-c3cnn(C)c3)nc21` [Compound 84], the IC50 at KDR (h) (setting [6]) is > 1000 nM; at FGFR1 (h) (setting [6]), 224 nM; in assay [1], > 10000 nM; in [2], > 10000 nM; on FGFR4 (h) (setting [6]), 3550 nM; on FGFR3 (h) (setting [6]), 363 nM. In assay [3], the “BAF3-FGFR1 (MIN IL3) pIC50” value was found to be 5.15. In assay [4], the “BAF3-FGFR4 pIC50” value is given as <5. Further, the “BAF3-FGFR3 (MIN IL3) pIC50” value in [5] is recorded as ~5.11.
